From patent US20070027121A1, “Method of treatment of diarrhea-predominant IBS in a female subject receiving contraceptive therapy” (priority 2005, published 2007)

Experiments:
[1] = design: dose or concentration left out as unconfirmed; conditions: co-administration with oral contraceptive containing; cited from earlier work
[2] = design: species or system human; conditions: in vivo
Experimental: A double-blind, balanced, randomized, two-period, placebo-controlled, crossover study in 20 healthy female subjects (1845 years of age, and who had received Ortho Tri-Cyclen® oral contraceptive (“OC”) for three or more months immediately preceding the start of the study) of cilansetron administration was conducted. All subjects were to have their OC cycles synchronized so that on study Day 1, they received the first dose of their OC for that cycle. All subjects were to continue to receive daily administrations of OC through each of the two consecutive 28-day study periods. […] In addition, during the first 28 days of the study (“the first period”), half of the subjects were administered 2 mg doses of cilansetron three times daily (TID) for 7 days (i.e., study days 14-21), while the other half of the subjects received equivalent doses of a placebo TID. On the first day of the “second period” of the 56-day study (i.e., day 29), the two groups were crossed over for the administration of the reverse treatment (i.e., those subjects who had been administered cilansetron 2 mg TID in the first period were to receive equivalent placebo administrations, and vice versa) for 7 days (i.e., study days 4249). Thereby, all subjects received both cilansetron and placebo treatments and, therefore, served as their own control. Safety was measured by monitoring adverse events, physical examination, clinical laboratory and pulmonary function tests, vital signs, 12 lead ECG, and telemetry. […]
The mean plasma concentration-time profile for EE was determined for both treatment groups in each of the two study periods, and are set forth in Table 1 (the contents of which are graphically illustrated in FIG. 1). The mean plasma concentration-time profile for NGM was determined for both treatment groups in each of the two study periods, and are set forth in Table 2. The mean plasma concentration-time profile for 17-d-NGM was determined for both treatment groups in each of the two study periods, and are set forth in Table 3 (the contents of which are graphically illustrated in FIG. 2). […]

[3] = tested on: follicle stimulating hormone (FSH); assay: Mean serum concentration of FSH in crossover study of OC plus cilansetron or placebo; assay type: in vivo, human; conditions: FIG. 4
Experimental: (§1) A double-blind, balanced, randomized, two-period, placebo-controlled, crossover study in 20 healthy female subjects (1845 years of age, and who had received Ortho Tri-Cyclen® oral contraceptive (“OC”) for three or more months immediately preceding the start of the study) of cilansetron administration was conducted. All subjects were to have their OC cycles synchronized so that on study Day 1, they received the first dose of their OC for that cycle. All subjects were to continue to receive daily administrations of OC through each of the two consecutive 28-day study periods. […] Safety was measured by monitoring adverse events, physical examination, clinical laboratory and pulmonary function tests, vital signs, 12 lead ECG, and telemetry.
(§2) In efforts to determine the effects (if any) of cilansetron 2 mg administration TID for 7 days on the pharmacodynamics of progesterone (P), luteinizing hormone (LH) and follicle stimulating hormone (FSH), the mean serum concentrations of these hormones was determined across the entire time-course of treatment, as set forth in Tables 6-8 and FIGS. 4-6. […]
(§3) Measurable serum concentrations of […], LH and P were available for 17 out of the 20 subjects, as determined using a validated ADVIA Centaur assay. […]

luteinizing hormone (LH) = assay: Mean serum concentration of LH in crossover study of OC plus cilansetron or placebo; assay type: in vivo, human; conditions: FIG. 5
Experimental: as §1, §2, §3

progesterone (P) = assay: Mean serum concentration of progesterone (P) in crossover study of OC plus cilansetron or placebo; assay type: in vivo, human; conditions: FIG. 6
Experimental: as §1, §2, §3

Cc1[nH]cnc1CN1CCc2c(c3ccccc3n2C)C1=O [alosetron]
decrease in systemic exposure to the EE component [1]: 9% | decrease in systemic exposure to the LN component [1]: 13%

Cc1nccn1C[C@H]1CCc2c(c3cccc4c3n2CCC4)C1=O [cilansetron, (R)-(−)-4,5,6,8,9,10-hexahydro-10-[(2-methyl-1H-imidazol-1-yl)methyl]-11H-pyrido-[3,2,1-jk]-carbazol-11-one]
effect on the pharmacokinetic and pharmacodynamic profiles and parameters associated with normal contraceptive use [2]: substantially no or no effect | mean plasma concentration of 17-d-NGM compared with OC therapy alone [2]: substantially the same | mean plasma concentration of EE compared with OC therapy alone [2]: substantially the same | mean serum concentration of FSH compared with OC therapy alone [3]: substantially the same | mean serum concentration of LH compared with OC therapy alone (luteinizing hormone (LH)): substantially the same | mean serum concentration of endogenous progesterone (P) compared with OC therapy alone (progesterone (P)): substantially the same
